In patent publication US8987233B2, “Bruton's tyrosine kinase activity probe and method of using” (Pharmacyclics, Inc., priority 2006, dated 2015):

Experiments:
purified, active Btk = purified, active Btk (Homo sapiens, UniProt Q06187); assay: Btk labeling in vitro (purified enzyme, SDS-PAGE, fluorescent scan)
EGFR = EGFR (Homo sapiens, UniProt P00533); assay: TR-FRET kinase assay, EGFR; assay type: biochemical; conditions: ATP at Km
Description: (§1) Kinase activity for Btk, Abl, c-met, ITK, LCK, and EGFR was determined using a time-resolved fluorescence resonance energy transfer (TR-FRET) methodology. Measurements were performed in a reaction volume of 50 μl using 96-well assay plates. […] The reaction was quenched by the addition of 1.2 equivalents of EDTA (relative to divalent cation) in 25 μL of 1× Lance buffer (Perkin-Elmer). Streptavidin-APC (Perkin-Elmer) and Eu-labeled p-Tyr100 antibody (Perkin-Elmer) in 1× Lance buffer were added in a 25 μL volume to give final concentrations of 100 nM and 2.5 nM, respectively, and the mixture was allowed to incubate for one hour. The TR-FRET signal was measured on a multimode plate reader with an excitation wavelength of 330 nm and detection wavelengths of 615 and 665 nm. Activity was determined by the ratio of the fluorescence at 665 nm to that at 615 nm. For each compound, enzyme activity was measured at various concentrations of compound. Negative control reactions were performed in the absence of inhibitor in replicates of six, and two no-enzyme controls were used to determine baseline fluorescence levels. Inhibition constants {Ki(app)} were obtained using the program BatchKi (23). […]; for all kinases, [ATP]=KmATP, [Btk]total=0.5 nM and [Lck]total=6 nM.

Btk [1] = biological target: T1, Btk (Homo sapiens, UniProt Q06187); assay: Probe labeling of Btk in 293H cells stably co-expressing Btk and PLCγ2
[2] = biological target: Btk Tyr 551 to Ala mutant (Homo sapiens, UniProt Q06187, Y551A); assay: Probe labeling in 293H cells transiently co-expressing PLCγ2 and Btk Y551A; conditions: transient co-expression with PLCγ2
Description: (§3) The selected co-expressor cell line was routinely maintained in D-MEM containing 10% FBS, 1× non-essential amino acids, 1× antibiotics, and supplemented with 200 μg/ml G418 and 25 μg/ml blastocidin. […] Cells were then harvested and lysed by incubation in 50 μl of cell lysis buffer (CelLytic M, Sigma) supplemented with 1× protease inhibitor and 1× phosphatase inhibitor cocktails (Calbiochem) for 10 min on ice. The protein concentrations in cell lysates were determined by Bradford protein assay (Pierce). Lysates equivalent to 20 μg of total protein were fractionated on 4 to 20% SDS-gradient gels (Invitrogen), and scanned using a Typhoon densitometer as described above. Labeling of Ramos cells was carried out in identical fashion except RPMI medium was used.

Abl = Abl (Homo sapiens, UniProt P00519); assay: TR-FRET kinase assay, Abl; assay type: biochemical; conditions: ATP at Km
Description: (§2) Kinase activity for Btk, Abl, c-met, ITK, LCK, and EGFR was determined using a time-resolved fluorescence resonance energy transfer (TR-FRET) methodology. Measurements were performed in a reaction volume of 50 μl using 96-well assay plates. […] For each compound, enzyme activity was measured at various concentrations of compound. Negative control reactions were performed in the absence of inhibitor in replicates of six, and two no-enzyme controls were used to determine baseline fluorescence levels. Inhibition constants {Ki(app)} were obtained using the program BatchKi (23).

Lck = Lck (Homo sapiens, UniProt P06239); assay: TR-FRET kinase assay, Lck; assay type: biochemical; conditions: ATP at Km
Description: as §2

Btk [3] = biological target: T1, Btk; assay: Inhibition of PLCγ2 phosphorylation at Tyr 1217 in 293H cells (ELISA); assay type: cell-based; conditions: Tyr 1217, ELISA, read-out: IC50 for probe inhibition of PLCγ2 phosphorylation
c-met = c-met (Homo sapiens, UniProt P08581); assay: TR-FRET kinase assay, c-met; assay type: biochemical; conditions: ATP at Km
Description: as §1

[4] = biological target: Btk Lys 430 to Ala mutant (Homo sapiens, UniProt Q06187, K430A); assay: Probe labeling in 293H cells transiently co-expressing PLCγ2 and Btk K430A; conditions: transient co-expression with PLCγ2
Description: as §3

Btk [5] = biological target: T1, Btk; assay: TR-FRET kinase assay, Btk; assay type: biochemical; set-up: His6 (N); purchased Upstate Biochem
Description: as §1

[6] = tested on: intracellular calcium mobilization in Ramos cells following B cell receptor activation; assay: Calcium flux assay in Ramos B-cells stimulated with anti-human IgM; assay type: cell-based; conditions: anti-IgM stimulation, read-out: IC50 Ca2+ flux (calcium mobilization)
Description: Calcium flux assay was performed according to the protocol described by the manufacturer (Molecular Devices). Briefly, actively growing Ramos B-cells in RPMI medium supplemented with 10% FBS were washed and re-plated in low serum medium to approximately 5×10^5 cells per 100 μl per well in 96-well plate. Compounds to be assayed were dissolved in DMSO, diluted to appropriate concentrations in low serum medium (from 0 to 10 μM final concentrations at a stepwise dilution factor of 0.3), added to each well (the final DMSO concentration was 0.01% in each well) and incubated at 37° in a 5% CO2 incubator for 1 hour. 100 μl calcium assay dye (Calcium 3 assay kit, Molecular Devices) was then added to each well and the incubation was continued for one hour. Compound-treated cells were stimulated with a goat anti-human IgM antibody (80 μg/ml) and the calcium mobilization signal was read in a Flexstation II 384 (Molecular Devices) at excitation and emission wavelengths of 485 nm and 538 nm, respectively, for 200 seconds. The relative fluorescence units (RFU) and the fifty percent inhibition values (IC50%) were recorded and analyzed using the SoftMax program (Molecular Devices).

Btk [7] = biological target: T1, Btk; assay: Probe labeling of endogenous Btk in cultured B cells (DOHH2)
Description: In some embodiments, to determine if a test Btk probe detects endogenous levels of Btk activity, label cultured B cells such as Ramos or DOHH2 B cells were used.
Cells were then harvested and lysed by incubation in 50 μl of cell lysis buffer (CelLytic M, Sigma) supplemented with 1× protease inhibitor and 1× phosphatase inhibitor cocktails (Calbiochem) for 10 min on ice. The protein concentrations in cell lysates were determined by Bradford protein assay (Pierce). Lysates equivalent to 20 μg of total protein were fractionated on 4 to 20% SDS-gradient gels (Invitrogen), and scanned using a Typhoon densitometer as described above. Labeling of Ramos cells was carried out in identical fashion except RPMI medium was used.

[8] = biological target: Btk Cys 481 to Ala mutation (Homo sapiens, UniProt Q06187, C481A); assay: Probe labeling in 293H cells transiently co-expressing PLCγ2 and Btk C481A; conditions: transient co-expression with PLCγ2
Sequence of Btk Cys 481 to Ala mutation (Q06187 whole entry C481A): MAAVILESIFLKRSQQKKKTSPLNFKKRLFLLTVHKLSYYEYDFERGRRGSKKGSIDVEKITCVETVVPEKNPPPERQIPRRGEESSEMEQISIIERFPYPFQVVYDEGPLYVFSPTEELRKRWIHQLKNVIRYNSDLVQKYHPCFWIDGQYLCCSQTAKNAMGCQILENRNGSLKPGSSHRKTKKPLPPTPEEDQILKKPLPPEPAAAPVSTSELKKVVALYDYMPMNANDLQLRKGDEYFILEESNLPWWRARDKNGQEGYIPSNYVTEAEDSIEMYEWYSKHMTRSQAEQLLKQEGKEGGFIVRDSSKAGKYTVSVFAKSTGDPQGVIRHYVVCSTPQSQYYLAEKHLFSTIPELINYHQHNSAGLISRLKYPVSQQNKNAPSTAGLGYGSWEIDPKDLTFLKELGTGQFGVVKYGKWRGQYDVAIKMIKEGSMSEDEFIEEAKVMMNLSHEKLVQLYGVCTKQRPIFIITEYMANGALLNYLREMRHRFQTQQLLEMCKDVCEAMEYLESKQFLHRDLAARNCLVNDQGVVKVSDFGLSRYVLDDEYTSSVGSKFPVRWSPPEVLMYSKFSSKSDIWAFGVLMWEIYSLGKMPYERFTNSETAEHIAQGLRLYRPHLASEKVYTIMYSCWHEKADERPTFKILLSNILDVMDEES
Description: as §3

T1 sequence (Q06187 whole entry): as the sequence (Q06187 whole entry C481A) above, with A481C counted along it
Sequence of purified, active Btk (Q06187 whole entry): as the sequence (Q06187 whole entry C481A) above, with A481C counted along it
Sequence of c-met (P08581 25-1390): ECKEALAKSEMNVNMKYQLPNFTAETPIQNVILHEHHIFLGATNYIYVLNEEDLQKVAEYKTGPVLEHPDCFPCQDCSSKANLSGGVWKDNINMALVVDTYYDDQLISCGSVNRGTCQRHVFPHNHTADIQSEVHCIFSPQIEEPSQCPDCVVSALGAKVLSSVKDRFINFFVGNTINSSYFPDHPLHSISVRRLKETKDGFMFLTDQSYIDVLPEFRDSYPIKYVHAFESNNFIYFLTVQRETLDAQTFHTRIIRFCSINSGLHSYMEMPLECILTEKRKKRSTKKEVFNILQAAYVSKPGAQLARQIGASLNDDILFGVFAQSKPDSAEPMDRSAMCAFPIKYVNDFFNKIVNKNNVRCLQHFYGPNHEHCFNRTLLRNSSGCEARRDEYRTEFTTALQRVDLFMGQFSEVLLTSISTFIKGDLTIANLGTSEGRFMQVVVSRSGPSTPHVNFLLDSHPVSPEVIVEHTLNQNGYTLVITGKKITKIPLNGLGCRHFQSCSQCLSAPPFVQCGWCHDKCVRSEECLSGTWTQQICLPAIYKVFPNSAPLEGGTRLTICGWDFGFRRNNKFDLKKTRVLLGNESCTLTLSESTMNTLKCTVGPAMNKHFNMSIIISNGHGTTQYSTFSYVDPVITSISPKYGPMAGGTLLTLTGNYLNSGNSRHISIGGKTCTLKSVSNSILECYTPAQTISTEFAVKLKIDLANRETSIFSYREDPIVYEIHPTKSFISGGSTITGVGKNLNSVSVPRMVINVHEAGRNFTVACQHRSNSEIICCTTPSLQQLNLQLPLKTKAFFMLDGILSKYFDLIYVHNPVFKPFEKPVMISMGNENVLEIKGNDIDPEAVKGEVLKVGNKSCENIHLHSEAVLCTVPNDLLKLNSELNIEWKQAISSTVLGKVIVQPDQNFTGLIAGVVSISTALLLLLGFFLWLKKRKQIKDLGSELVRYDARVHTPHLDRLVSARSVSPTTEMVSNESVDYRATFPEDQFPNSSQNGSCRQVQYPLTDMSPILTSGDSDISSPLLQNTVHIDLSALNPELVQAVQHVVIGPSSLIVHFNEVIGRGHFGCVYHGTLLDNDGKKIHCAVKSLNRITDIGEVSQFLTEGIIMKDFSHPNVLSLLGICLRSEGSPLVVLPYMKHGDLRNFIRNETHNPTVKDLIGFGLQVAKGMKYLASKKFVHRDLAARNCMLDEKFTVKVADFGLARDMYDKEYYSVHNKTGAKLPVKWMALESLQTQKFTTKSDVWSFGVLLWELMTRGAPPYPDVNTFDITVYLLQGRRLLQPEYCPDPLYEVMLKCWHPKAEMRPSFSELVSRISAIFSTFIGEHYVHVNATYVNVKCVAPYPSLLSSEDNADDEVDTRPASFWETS
Sequence of Lck (P06239 whole entry, species assumed): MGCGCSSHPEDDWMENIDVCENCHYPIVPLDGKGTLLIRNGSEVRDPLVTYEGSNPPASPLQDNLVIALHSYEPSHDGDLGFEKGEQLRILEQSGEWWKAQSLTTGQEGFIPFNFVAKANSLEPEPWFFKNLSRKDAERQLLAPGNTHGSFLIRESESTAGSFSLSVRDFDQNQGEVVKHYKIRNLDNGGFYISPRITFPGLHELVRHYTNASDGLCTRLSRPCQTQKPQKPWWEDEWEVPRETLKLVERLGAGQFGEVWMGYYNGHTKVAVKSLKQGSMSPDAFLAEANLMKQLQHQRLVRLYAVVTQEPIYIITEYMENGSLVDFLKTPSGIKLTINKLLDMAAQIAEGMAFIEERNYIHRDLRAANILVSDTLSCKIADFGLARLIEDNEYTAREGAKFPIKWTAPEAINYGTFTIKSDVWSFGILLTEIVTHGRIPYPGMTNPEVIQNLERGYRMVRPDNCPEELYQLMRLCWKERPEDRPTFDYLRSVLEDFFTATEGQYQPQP
Sequence of Btk Tyr 551 to Ala mutant (Q06187 whole entry Y551A): as the sequence (Q06187 whole entry C481A) above, with A481C, Y551A counted along it
Sequence of Abl (P00519 whole entry, species assumed): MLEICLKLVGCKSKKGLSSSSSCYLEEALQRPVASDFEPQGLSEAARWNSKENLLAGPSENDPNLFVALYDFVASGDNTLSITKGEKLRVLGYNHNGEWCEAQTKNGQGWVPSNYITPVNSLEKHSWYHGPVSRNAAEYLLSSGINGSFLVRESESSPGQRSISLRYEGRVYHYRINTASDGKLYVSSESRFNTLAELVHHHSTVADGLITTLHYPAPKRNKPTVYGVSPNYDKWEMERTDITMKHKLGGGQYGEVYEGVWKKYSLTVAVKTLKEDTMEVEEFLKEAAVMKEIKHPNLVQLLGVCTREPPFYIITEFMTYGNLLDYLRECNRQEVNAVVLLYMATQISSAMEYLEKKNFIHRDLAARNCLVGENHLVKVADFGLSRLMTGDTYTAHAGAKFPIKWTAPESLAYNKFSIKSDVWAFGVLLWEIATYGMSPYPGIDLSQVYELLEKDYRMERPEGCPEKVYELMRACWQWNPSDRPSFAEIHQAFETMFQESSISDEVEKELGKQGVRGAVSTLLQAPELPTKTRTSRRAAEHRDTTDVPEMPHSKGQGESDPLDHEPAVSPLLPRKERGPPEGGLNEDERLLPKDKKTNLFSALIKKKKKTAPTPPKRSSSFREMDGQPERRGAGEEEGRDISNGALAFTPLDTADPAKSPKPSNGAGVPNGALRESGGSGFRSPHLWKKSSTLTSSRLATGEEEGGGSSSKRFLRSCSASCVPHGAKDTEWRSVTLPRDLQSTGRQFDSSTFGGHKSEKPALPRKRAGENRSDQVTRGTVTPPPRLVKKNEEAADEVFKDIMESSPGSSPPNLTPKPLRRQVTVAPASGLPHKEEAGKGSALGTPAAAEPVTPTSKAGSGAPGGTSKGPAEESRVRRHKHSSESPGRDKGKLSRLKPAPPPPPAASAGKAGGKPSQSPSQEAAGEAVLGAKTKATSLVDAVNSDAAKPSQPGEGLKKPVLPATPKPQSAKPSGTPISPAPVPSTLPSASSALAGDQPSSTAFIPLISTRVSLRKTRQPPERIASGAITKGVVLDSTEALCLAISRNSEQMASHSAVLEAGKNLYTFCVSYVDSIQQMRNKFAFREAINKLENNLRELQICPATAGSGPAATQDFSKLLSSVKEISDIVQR
Sequence of Btk Lys 430 to Ala mutant (Q06187 whole entry K430A): as the sequence (Q06187 whole entry C481A) above, with K430A, A481C counted along it
Sequence of EGFR (P00533 25-1210, species assumed): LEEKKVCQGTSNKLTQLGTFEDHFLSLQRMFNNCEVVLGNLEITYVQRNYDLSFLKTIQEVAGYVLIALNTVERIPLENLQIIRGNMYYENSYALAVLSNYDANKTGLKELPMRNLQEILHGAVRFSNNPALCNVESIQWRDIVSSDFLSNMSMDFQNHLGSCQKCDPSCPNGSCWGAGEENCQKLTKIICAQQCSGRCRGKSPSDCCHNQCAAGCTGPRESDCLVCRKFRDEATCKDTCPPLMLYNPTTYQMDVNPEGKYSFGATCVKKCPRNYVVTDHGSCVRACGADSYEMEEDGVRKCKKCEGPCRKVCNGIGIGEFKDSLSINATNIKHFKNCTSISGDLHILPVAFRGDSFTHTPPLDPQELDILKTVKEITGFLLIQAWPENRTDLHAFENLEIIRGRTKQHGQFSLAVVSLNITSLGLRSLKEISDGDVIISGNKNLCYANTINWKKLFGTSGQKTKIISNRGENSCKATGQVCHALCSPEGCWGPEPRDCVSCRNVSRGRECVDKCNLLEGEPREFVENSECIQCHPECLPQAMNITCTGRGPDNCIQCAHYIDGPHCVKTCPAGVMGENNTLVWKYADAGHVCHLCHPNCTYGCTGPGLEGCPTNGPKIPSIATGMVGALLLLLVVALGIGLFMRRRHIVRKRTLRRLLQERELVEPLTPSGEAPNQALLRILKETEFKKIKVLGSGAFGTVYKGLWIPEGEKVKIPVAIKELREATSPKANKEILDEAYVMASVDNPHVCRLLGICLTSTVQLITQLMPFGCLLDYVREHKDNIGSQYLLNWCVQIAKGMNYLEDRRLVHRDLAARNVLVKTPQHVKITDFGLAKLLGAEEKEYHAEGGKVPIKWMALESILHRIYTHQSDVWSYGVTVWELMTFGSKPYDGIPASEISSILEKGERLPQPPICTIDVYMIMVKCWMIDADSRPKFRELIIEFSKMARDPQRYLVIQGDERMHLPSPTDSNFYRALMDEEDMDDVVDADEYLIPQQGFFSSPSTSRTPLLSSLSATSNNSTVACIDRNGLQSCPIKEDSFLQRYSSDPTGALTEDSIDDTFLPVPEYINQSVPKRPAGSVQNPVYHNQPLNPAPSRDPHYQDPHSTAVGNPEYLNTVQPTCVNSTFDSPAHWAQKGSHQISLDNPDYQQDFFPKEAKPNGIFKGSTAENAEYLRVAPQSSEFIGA

Row | Compound | Effect of pre-incubation on Compound 3 labeling of Btk (purified, active Btk; pre-incubation with 1 μM Compound 2 or 0.5 mM ATPγS) | IC50 (EGFR) | EC50 (Btk [1]) | Probe labeling of Btk Y551A mutant [2] | IC50 (Abl) | IC50 (Lck) | IC50 (Btk [3]) | IC50 (c-met) | Probe labeling of Btk K430A mutant [4] | IC50 (Btk [5]; ATP at Km, read-out: IC50 Btk) | IC50 (Btk [5]; read-out: IC50 against Btk) | IC50 [6] | Probe concentration at which labeling of Btk reached saturation (purified, active Btk; 1 μg (0.13 μM) purified Btk, 1 hour at 37° C.) | EC50 (Btk [7]) | Probe labeling of Btk C481A mutant [8]
1 | Nc1ncnc2c1ncn2[C@@H]1O[C@H](COP(=O)(O)OP(=O)(O)OP(O)(O)=S)[C@@H](O)[C@H]1O [ATP-γ-S, reference compound] | substantially reduced | – | – | – | – | – | – | – | – | – | – | – | – | – | –
2 | CC1=CC(C)=[N+]2C1=Cc1ccc(CCC(=O)NCCN3CCN(C/C=C/C(=O)N4CCC[C@@H](n5nc(-c6ccc(Oc7ccccc7)cc6)c6c(N)ncnc65)C4)CC3)n1[B-]2(F)F [Compound 3] | – | 2900 nM | ~200 nM | also labeled | 300 nM | 240 nM | 300 nM | 100000 nM | no effect on probe labeling | 89 nM | 90 nM | 230 nM | 1 µM | ~200 nM | abrogated labeling
3 | C=CC(=O)N1CCC[C@@H](n2nc(-c3ccc(Oc4ccccc4)cc3)c3c(N)ncnc32)C1 [Compound 2] | – | – | – | – | – | – | – | 35000 nM | – | – | – | 10 nM | – | – | –
